Data reported in paper PMC12503911, “Cytotoxicity of Atropisomeric [1,1′‐Binaphthalene]‐2,2′‐Diamines (BINAM) and Analogs in Human Cancer Cells: Enantioselectivity, Structure–Activity Relationships, and Mechanism” (Chemmedchem, 2025).

Key:
AuroraA [1] = molecular target: T1, AuroraA (Homo sapiens, UniProt O14965); test: […]PanQinase radiometric kinase assay (Reaction Biology); type: biochemical; settings: read-out: Residual activities [% of control] / 1(R) 10 μM
T1 construct: gene AURKA
T1 sequence (O14965 1-403): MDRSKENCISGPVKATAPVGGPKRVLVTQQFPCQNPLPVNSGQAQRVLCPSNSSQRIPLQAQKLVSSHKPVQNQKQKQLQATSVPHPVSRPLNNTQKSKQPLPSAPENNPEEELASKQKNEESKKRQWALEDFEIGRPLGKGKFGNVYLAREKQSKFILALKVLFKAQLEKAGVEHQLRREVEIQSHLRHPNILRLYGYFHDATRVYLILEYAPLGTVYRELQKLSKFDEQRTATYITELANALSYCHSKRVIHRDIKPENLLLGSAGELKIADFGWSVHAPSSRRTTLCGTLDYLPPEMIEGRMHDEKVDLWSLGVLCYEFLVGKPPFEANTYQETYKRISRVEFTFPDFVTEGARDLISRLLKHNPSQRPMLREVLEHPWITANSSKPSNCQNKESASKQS

ASK1 = molecular target: T2, ASK1 (Homo sapiens, UniProt Q99683); test: as above; type: biochemical; settings: read-out: Residual activities [% of control] / 1(R) 10 μM
T2 construct: gene MAP3K5
T2 sequence (Q99683 1-1374): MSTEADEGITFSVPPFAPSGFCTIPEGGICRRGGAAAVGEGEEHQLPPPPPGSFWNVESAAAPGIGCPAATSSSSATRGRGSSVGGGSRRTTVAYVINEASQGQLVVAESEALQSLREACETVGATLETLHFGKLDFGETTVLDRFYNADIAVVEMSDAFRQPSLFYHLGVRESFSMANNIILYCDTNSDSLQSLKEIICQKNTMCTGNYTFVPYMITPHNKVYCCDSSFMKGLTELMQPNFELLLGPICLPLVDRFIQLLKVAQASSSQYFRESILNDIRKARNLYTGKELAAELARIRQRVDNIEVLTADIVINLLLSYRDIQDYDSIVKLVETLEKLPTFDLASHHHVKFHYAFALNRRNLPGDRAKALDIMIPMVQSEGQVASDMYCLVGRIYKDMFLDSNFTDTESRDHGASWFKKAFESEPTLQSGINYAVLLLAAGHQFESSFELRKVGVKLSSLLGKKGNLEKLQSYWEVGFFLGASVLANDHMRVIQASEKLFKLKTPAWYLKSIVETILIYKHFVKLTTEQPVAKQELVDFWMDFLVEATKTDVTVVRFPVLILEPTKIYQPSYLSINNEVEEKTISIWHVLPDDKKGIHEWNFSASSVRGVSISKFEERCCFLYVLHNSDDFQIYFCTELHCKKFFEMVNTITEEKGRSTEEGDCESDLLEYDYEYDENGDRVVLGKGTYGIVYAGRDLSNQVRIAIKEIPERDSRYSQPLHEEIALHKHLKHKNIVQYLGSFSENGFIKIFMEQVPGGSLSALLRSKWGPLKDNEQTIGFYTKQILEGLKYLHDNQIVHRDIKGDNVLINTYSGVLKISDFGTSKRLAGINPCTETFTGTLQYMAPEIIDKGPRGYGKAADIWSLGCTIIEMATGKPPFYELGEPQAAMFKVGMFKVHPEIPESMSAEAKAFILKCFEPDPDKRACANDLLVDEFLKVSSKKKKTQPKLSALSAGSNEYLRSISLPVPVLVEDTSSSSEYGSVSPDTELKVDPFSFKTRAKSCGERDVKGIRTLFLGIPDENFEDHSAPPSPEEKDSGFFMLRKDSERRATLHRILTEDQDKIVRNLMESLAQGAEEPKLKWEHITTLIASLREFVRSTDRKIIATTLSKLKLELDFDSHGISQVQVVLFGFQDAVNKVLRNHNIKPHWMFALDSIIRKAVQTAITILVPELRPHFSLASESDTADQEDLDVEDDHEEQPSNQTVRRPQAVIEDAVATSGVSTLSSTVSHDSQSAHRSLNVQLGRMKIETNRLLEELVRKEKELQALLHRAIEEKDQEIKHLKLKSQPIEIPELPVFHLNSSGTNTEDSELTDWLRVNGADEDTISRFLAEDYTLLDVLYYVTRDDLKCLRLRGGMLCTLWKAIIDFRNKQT

AuroraA [2] = molecular target: T1, AuroraA; test: biochemical; design: 33PanQinase radiometric kinase activity assay, residual activity in % of control, contract lab Reaction Biology; settings: mean of intraexperimental duplicates, n = 1; read-out: Residual activities [% of control] / 1(S) 10 µM

| remaining activity at 10 µM (AuroraA [1]) [%] | remaining activity at 10 µM (ASK1) [%] | remaining activity at 10 µM (AuroraA [2]) [%] | SMILES |
| --- | --- | --- | --- |
| 86 | 90 | – | Nc1ccc2ccccc2c1-c1c(N)ccc2ccccc12 [1(R), (R)‐[1,1′‐binaphthalene]‐2,2′‐diamine] |
| – | – | 98 | Nc1ccc2ccccc2c1-c1c(N)ccc2ccccc12 [1(S), S‐BINAM] |
